Where “and” joins values, the source holds several entries; their conditions need not be identical. Identical values can stand only once. Inconclusive results and toxic doses are left out. Where a SMILES comes first, the peptide text is derived from it.

The test system of the test is B6C3F1 mice, B16 melanoma ip, median survival T/C. Put plainly: NCI In Vivo Anticancer Drug Screen. Data for tumor model B16 Melanoma (intraperitoneal) in B6C3F1 mice. The settings on record: endpoint: median survival time, higher = longer survival. Summed up: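 Antitumor effect was judged in mice with transplanted tumors by dividing the treated group's survival measure by that of vehicle controls.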

The mark [1] stands for this setting: dose: 6.25 mg/kg/injection, schedule: Q01DX009 (ip), vehicle: other.
Where [2] appears, read: dose: 12.5 mg/kg/injection, schedule: Q01DX009 (ip), vehicle: other.
[3] abbreviates: dose: 25.0 mg/kg/injection, schedule: Q01DX009 (ip), vehicle: other.
Setting [4] is: dose: 0.25 mg/kg/injection, schedule: Q01DX009 (ip), vehicle: saline + alcohol.
[5] abbreviates: dose: 0.5 mg/kg/injection, schedule: Q01DX009 (ip), vehicle: saline + alcohol.
The mark [6] stands for this setting: dose: 1.0 mg/kg/injection, schedule: Q01DX009 (ip), vehicle: saline + alcohol.
Setting [7] is: dose: 2.0 mg/kg/injection, schedule: Q01DX009 (ip), vehicle: saline + alcohol.
[8] abbreviates: dose: 12.5 mg/kg/injection, schedule: Q01DX009 (ip), vehicle: Klucel (hydroxypropylcellulose) (HPC).
[9] abbreviates: dose: 25.0 mg/kg/injection, schedule: Q01DX009 (ip), vehicle: Klucel (hydroxypropylcellulose) (HPC).
Setting [10] is: dose: 50.0 mg/kg/injection, schedule: Q01DX009 (ip), vehicle: Klucel (hydroxypropylcellulose) (HPC).
[11] abbreviates: dose: 100.0 mg/kg/injection, schedule: Q01DX009 (ip), vehicle: Klucel (hydroxypropylcellulose) (HPC).
Where [12] appears, read: dose: 200.0 mg/kg/injection, schedule: Q01DX009 (ip), vehicle: Klucel (hydroxypropylcellulose) (HPC).
The mark [13] stands for this setting: dose: 400.0 mg/kg/injection, schedule: Q01DX009 (ip), vehicle: Klucel (hydroxypropylcellulose) (HPC).
Setting [14] is: dose: 3.12 mg/kg/injection, schedule: Q01DX009 (ip), vehicle: saline with Tween-80.
[15] abbreviates: dose: 6.25 mg/kg/injection, schedule: Q01DX009 (ip), vehicle: saline with Tween-80.
Where [16] appears, read: dose: 12.5 mg/kg/injection, schedule: Q01DX009 (ip), vehicle: saline with Tween-80.
Where [17] appears, read: dose: 50.0 mg/kg/injection, schedule: Q01DX009 (ip), vehicle: saline.
The mark [18] stands for this setting: dose: 100.0 mg/kg/injection, schedule: Q01DX009 (ip), vehicle: saline.
Where [19] appears, read: dose: 25.0 mg/kg/injection, schedule: Q01DX009 (ip), vehicle: saline with Tween-80.
Where [20] appears, read: dose: 50.0 mg/kg/injection, schedule: Q01DX009 (ip), vehicle: saline with Tween-80.

As to `CCCn1cc2c3c(cccc31)C1C=C(C)CN(C)C1C2` (centres undefined), the T/C reads like this: under setting [1], 118 % of control; under setting [2], 306 % of control; under setting [3], 91 % of control.

For `Cc1ccc(C(=O)OC(C(=O)O)C(OC(=O)c2ccc(C)cc2)C(=O)O)cc1` (centres undefined) (tested in a mixture with another compound), the T/C runs as follows: under setting [1], 93 % of control; under setting [2], 91 % of control; under setting [3], 111 % of control.

Regarding `COC(=O)C12OCC34C(CC5C(C)=CC(=O)C(O)C5(C)C3C(O)C1O)OC(=O)C(OC(=O)CC(C)C)C24` (centres undefined), the T/C reads like this: under setting [4], 164 % of control; under setting [5], 180 % of control; under setting [6], 164 % of control; under setting [7], 159 % of control.

Take `O=S(=O)(SC(S(=O)(=O)c1ccccc1)S(=O)(=O)c1ccccc1)c1ccccc1`: the T/C is, setting by setting: under setting [8], 109 % of control; under setting [9], 115 % of control; under setting [10], 114 % of control; under setting [11], 107 % of control; under setting [12], 106 % of control; under setting [13], 98 % of control.

On to `CS(=O)(=O)OCCN(CCOS(C)(=O)=O)c1ccc(C=O)cc1`, for which the T/C is, setting by setting: under setting [14], 151 % of control; under setting [15], 162 % of control; under setting [16], 186 % of control.

In the case of `NCC(=O)N1CCCC1C(=O)NCC(=O)NCC(=O)O` (centres undefined) (HELM PEPTIDE1{G.[O=C(C1CCCN1[*:1])[*:2]].G.G}$$$$V2.0), the T/C under setting [17] is 92 % of control; the T/C under setting [18] is 100 % of control; the T/C (dose: 200.0 mg/kg/injection, schedule: Q01DX009 (ip), vehicle: saline) was 95 % of control.

`O=C1CCC(=O)N1CO`: the T/C was 121 % of control under setting [17] and 117 % of control under setting [18].

Consider `OCC1OC(n2cnc3c2NC=NC[C@H]3O)CC1O` (some centres undefined), for which the T/C runs as follows: (dose: 0.13 mg/kg/injection, schedule: Q01DX009 (ip), vehicle: saline) 84 % of control; (dose: 0.25 mg/kg/injection, schedule: Q01DX009 (ip), vehicle: saline) 78 % of control; (dose: 0.5 mg/kg/injection, schedule: Q01DX009 (ip), vehicle: saline) 96 % of control.

As for `ClCc1ccc2ccccc2n1`, the T/C was 107 % of control under setting [19] and 102 % of control under setting [20].

Regarding `CCCCC(NC(=O)C(C)NC(=O)OCc1ccccc1)C(=O)O` (centres undefined), the T/C is, setting by setting: under setting [11], 101 % of control; under setting [12], 99 % of control; under setting [13], 94 % of control.

`Cc1nn(CCO)c(C)c1N=[N+]([O-])c1c(C)nn(CCO)c1C`: the T/C (dose: 3.12 mg/kg/injection, schedule: Q01DX009 (ip), vehicle: Klucel (hydroxypropylcellulose) (HPC)) was 107 % of control; the T/C under setting [14] is 97 % of control; the T/C (dose: 6.25 mg/kg/injection, schedule: Q01DX009 (ip), vehicle: Klucel (hydroxypropylcellulose) (HPC)) was 109 % of control; the T/C under setting [15] was 100 % of control; the T/C under setting [8] was 111 % of control; the T/C under setting [16] is 92 % of control. The T/C reads like this: under setting [9], 95 % of control; under setting [19], 92 % of control; under setting [10], 91 % of control; under setting [20], 96 % of control; under setting [11], 91 % of control.

Regarding `C=C1C(O)C2(O)OCC34C(CC5C(C)=CC(=O)C(O)C5(C)C23)OC(=O)C(OC(=O)C/C=C(\C)CCCCC)C14` (centres undefined), the T/C is 187 % of control (dose: 4.0 mg/kg/injection, schedule: Q01DX009 (ip), vehicle: saline + alcohol); 156 % of control (dose: 4.8 mg/kg/injection, schedule: Q01DX009 (ip), vehicle: saline + Tween-80 + alcohol); 154 % of control (dose: 8.0 mg/kg/injection, schedule: Q01DX009 (ip), vehicle: saline + Tween-80 + alcohol); 187 % of control (dose: 8.0 mg/kg/injection, schedule: Q01DX009 (ip), vehicle: saline + alcohol).

On to `Cc1oc2c(C)c3oc(=O)cc(C)c3cc2c1CCl`, for which the T/C runs as follows: under setting [16], 91 % of control and 97 % of control; under setting [19], 87 % of control and 88 % of control (2×); under setting [20], 102 % of control.

`ClCC[Se](Cl)(Cl)c1ccccc1`: the T/C reads like this: (dose: 1.5 mg/kg/injection, schedule: Q01DX009 (ip), vehicle: saline) 102 % of control; (dose: 1.56 mg/kg/injection, schedule: Q01DX009 (ip), vehicle: saline) 113 % of control; (dose: 3.0 mg/kg/injection, schedule: Q01DX009 (ip), vehicle: saline) 116 % of control; (dose: 6.0 mg/kg/injection, schedule: Q01DX009 (ip), vehicle: saline) 108 % of control.

For `CCC(C)C(O)C(C)C(=O)C(C)/C=C(\C)CC(C)C1OC(=O)C1CC` (centres undefined), the T/C by setting is: under setting [4], 104 % of control; under setting [5], 98 % of control and 104 % of control; under setting [6], 109 % of control and 100 % of control; under setting [7], 98 % of control and 103 % of control.

For the molecule `CN(C)N=Nc1cccc2c1N(C)c1ccc(F)cc1S2`, the T/C runs as follows: under setting [1], 103 % of control; under setting [2], 100 % of control; under setting [3], 108 % of control; (dose: 50.0 mg/kg/injection, schedule: Q01DX009 (ip), vehicle: other) 95 % of control; (dose: 100.0 mg/kg/injection, schedule: Q01DX009 (ip), vehicle: other) 102 % of control.

In the case of `O=C(CNC(=O)OCc1ccccc1)NCC(=O)NC(Cc1c[nH]c2ccccc12)C(=O)O` (centres undefined), the T/C (dose: 50.0 mg/kg/injection, schedule: Q01DX009 (ip), vehicle: suspension in saline) is 97 % of control; the T/C (dose: 100.0 mg/kg/injection, schedule: Q01DX009 (ip), vehicle: suspension in saline) is 109 % of control and 117 % of control and 88 % of control; the T/C (dose: 200.0 mg/kg/injection, schedule: Q01DX009 (ip), vehicle: suspension in saline) is 91 % of control and 99 % of control; the T/C (dose: 400.0 mg/kg/injection, schedule: Q01DX009 (ip), vehicle: suspension in saline) is 88 % of control and 92 % of control and 107 % of control.

As to `COc1ccc2c(c1OC(C)=O)-c1cc(OC(C)=O)cc3c1C(C2)N(C(=O)CN(CCCl)CCCl)CC3` (centres undefined), the T/C (dose: 1.56 mg/kg/injection, schedule: Q04DX003 (ip), vehicle: DMSO) was 120 % of control; the T/C (dose: 3.13 mg/kg/injection, schedule: Q04DX003 (ip), vehicle: DMSO) was 120 % of control; the T/C (dose: 6.25 mg/kg/injection, schedule: Q04DX003 (ip), vehicle: DMSO) was 159 % of control; the T/C (dose: 12.5 mg/kg/injection, schedule: Q04DX003 (ip), vehicle: DMSO) was 150 % of control; the T/C (dose: 25.0 mg/kg/injection, schedule: Q04DX003 (ip), vehicle: DMSO) was 150 % of control; the T/C (dose: 50.0 mg/kg/injection, schedule: Q04DX003 (ip), vehicle: DMSO) is 170 % of control.

On to `COc1cc2c(oc(=O)c3cc(C)cc(OC)c32)c2c(C3OC(C)C(O)C(C)(O)C3O)ccc(O)c12` (centres undefined), for which the T/C reads like this: (dose: 1.56 mg/kg/injection, schedule: Q01DX009 (ip), vehicle: DMSO) 94 % of control and 103 % of control; (dose: 3.12 mg/kg/injection, schedule: Q01DX009 (ip), vehicle: DMSO) 109 % of control and 107 % of control; (dose: 6.0 mg/kg/injection, schedule: Q01DX009 (ip), vehicle: DMSO) 88 % of control; (dose: 6.25 mg/kg/injection, schedule: Q01DX009 (ip), vehicle: DMSO) 119 % of control and 96 % of control and 104 % of control; (dose: 12.0 mg/kg/injection, schedule: Q01DX009 (ip), vehicle: DMSO) 96 % of control; (dose: 12.5 mg/kg/injection, schedule: Q01DX009 (ip), vehicle: DMSO) 121 % of control.

These data come from PubChem BioAssay AID200 (DTP/NCI, 2004).
